From patent US7998990B2, “5-phenyl-thiazol-2-yl-urea derivatives and use as PI3 kinase inhibitors” (Novartis AG, priority 2006, dated 2011)

Biological target: T1, phosphatidylinositol 3-kinase gamma isoform (p110?), recombinant GST-p110? (Homo sapiens, UniProt P48736)
T1 construct: made in house; host or cells: Sf9 (Spodoptera frugiperda) insect cells, baculovirus
Assay: PI3K gamma in vitro kinase assay (Scintillation Proximity Assay, phosphate transfer from ATP to phosphatidylinositol)
Type: biochemical
Settings: for IC50: gamma isoform, fluorinated Example compound
Excerpt: Compounds of formula I and their pharmaceutically acceptable salts, hereinafter referred to alternatively as agents of the invention, are useful as pharmaceuticals.
Baculovirus expressing different fragments of PI3K? fused to GST have been previously described by Stoyanova, S., Bulgarelli-Leva, G., Kirsch, C., Hanck, T., Klinger, R., Wetzker, R., Wymann, M. P. (1997) Lipid- and protein kinase activities of G protein-coupled PI 3-kinase g: structure-activity analysis and interactions with wortmannin. Biochem. J., 324:489. Residues 38-1102 of human PI3K? are subcloned into the BamH1 and EcoR1 sites of the transfer vector pAcG2T (Pharmingen) to create a GST-PI3K? lacking the first 37 residues of PI3K?. To express the recombinant protein, Sf9 (Spodoptera frugiperda 9) insect cells are routinely maintained at densities between 3×10^5 and 3×10^6 cells/ml in serum containing TNMFH medium (Sigma). Sf9 cells, at a density of 2×10^6 are infected with human GST-PI3K[…] 34 baculovirus at a multiplicity of infection (m.o.i.) of 1 for 72 hours. The infected cells are harvested by centrifugation at 1400 g for 4 minutes at 4° C. and the cell pellets are frozen at −80° C. Both Sf9 and Sf21 cells work equally well. Sf9 cells (1×10^9) are resuspended in 100 ml cold (4° C.) lysis buffer (50 mM Tris-HCl pH 7.5, 1% Triton X-100, 150 mM NaCl, 1 mM NaF, 2 mM DTT and protease inhibitors. Cells are incubated on ice for 30 minutes then centrifuged at 15000 g for 20 minutes at 4° C. Purification of the supernatant sample is carried out at 4° C. by affinity chromatography using SEPHAROSE™ agarose gel beads coupled to glutathione (from Amersham Pharmacia Biotech). A cell lysate/GST resin ratio of 50:1 is used. The GST resin is firstly pre-rinsed to remove ethanol preservative and then equilibrated with lysis buffer. Cell lysate (supernatant) is added (usually as 50 ml lysate to 1 ml GST resin in 50 ml tubes) and gently rotated on a mixer at 4° C. for 2-3 hours. The unbound flow through sample is collected by centrifugation at 1000 g for 5 minutes at 4° C. using a DENLEY™ centrifuge. The 1 ml GST resin containing bound material is transferred to a 15 ml FALCON™ centrifuge tube for subsequent washing and elution steps. Firstly a series of 3 cycles of washings (mixing by gentle inversion) is performed with 15 ml ice cold wash Buffer A (50 mM Tris-HCl pH 7.5, 1% Triton X-100, 2 mM DTT) interspersed with centrifugation at 1000 g for 5 minutes at 4° C. A final single wash step is performed with 15 ml ice cold wash Buffer B (50 mM Tris-HCl pH 7.5, 2 mM DTT) and then centrifuged at 1000 g for 5 minutes at 4° C. The washed GST resin is finally eluted with 4 cycles of 1 ml ice cold elution buffer (50 mM Tris-HCl pH 7.5, 10 mM reduced glutathione, 2 mM DTT, 150 mM NaCl, 1 mM NaF, 50% ethylene glycol and protease inhibitors) interspersed with centrifugation at 1000 g for 5 minutes at 4° C. Samples are aliquoted and stored at −20° C.
An in vitro kinase assay was established that measures the transfer of the terminal phosphate of adenosine triphosphate to phosphatidylinositol. The kinase reaction is performed in a white 96 well microtitre plate as a Scintillation Proximity Assay. Each well contains 10 μl test compound in 5% dimethylsulphoxide and 20 μl assay mix (40 mM Tris, 200 mM NaCl, 2 mM ethyleneglycol-aminoethyl-tetraacetic acid (EGTA), 15 μg/ml phosphatidylinositol, 12.5 μM adenosine triphosphate (ATP), 25 mM MgCl2, 0.1 μCi [^33P]ATP). […]

T1 sequence (P48736 38-1102): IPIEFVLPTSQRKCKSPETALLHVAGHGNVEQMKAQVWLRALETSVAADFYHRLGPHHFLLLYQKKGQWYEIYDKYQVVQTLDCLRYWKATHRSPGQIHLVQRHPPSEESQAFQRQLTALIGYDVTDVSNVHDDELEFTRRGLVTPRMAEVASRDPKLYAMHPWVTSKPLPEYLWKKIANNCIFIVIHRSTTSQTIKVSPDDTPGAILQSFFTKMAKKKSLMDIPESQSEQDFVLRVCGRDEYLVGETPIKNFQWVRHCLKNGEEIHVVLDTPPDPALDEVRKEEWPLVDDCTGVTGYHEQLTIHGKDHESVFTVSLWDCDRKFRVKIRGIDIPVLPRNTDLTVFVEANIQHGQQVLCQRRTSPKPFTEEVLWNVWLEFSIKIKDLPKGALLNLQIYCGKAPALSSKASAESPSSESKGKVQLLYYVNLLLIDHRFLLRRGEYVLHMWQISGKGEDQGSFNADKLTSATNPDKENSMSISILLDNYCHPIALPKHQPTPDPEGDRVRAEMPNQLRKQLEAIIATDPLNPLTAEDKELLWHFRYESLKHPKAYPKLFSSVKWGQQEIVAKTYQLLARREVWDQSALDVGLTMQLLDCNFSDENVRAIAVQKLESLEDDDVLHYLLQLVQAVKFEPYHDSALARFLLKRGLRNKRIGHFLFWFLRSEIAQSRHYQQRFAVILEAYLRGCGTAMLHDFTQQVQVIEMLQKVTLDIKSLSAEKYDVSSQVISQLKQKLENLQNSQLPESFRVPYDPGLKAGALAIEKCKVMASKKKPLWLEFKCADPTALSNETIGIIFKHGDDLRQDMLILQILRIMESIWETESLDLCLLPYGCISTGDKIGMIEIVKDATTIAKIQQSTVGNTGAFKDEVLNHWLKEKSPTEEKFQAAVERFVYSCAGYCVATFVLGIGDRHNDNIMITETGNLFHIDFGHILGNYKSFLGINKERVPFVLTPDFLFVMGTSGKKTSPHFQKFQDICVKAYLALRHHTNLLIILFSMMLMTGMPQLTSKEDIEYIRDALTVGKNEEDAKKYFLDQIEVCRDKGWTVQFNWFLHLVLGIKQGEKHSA

IC50 [µM]	increase in activity over the corresponding compound described in WO0521519 (fold, from IC50 (?) values of the table)	Compound
0.028	–	Cc1nc(NC(=O)NCCC(=O)NCC(F)F)sc1-c1ccc(S(C)(=O)=O)c(F)c1 [compound 2, N-(2,2-Difluoroethyl)-3-{3-[5-(3-fluoro-4-methanesulfonyl-phenyl)-4-methyl-thiazol-2-yl]-ureido}-propionamide]
0.028	–	Cc1nc(NC(=O)NCCc2cn(CCF)cn2)sc1-c1ccc(S(C)(=O)=O)c(F)c1 [compound 7, 1-{2-[1-(2-Fluoro-ethyl)-1H-imidazol-4-yl]-ethyl}-3-[5-(3-fluoro-4-methanesulfonyl-phenyl)-4-methyl-thiazol-2-yl]-urea]
0.01	four-fold	Cc1nc(NC(=O)NCCc2nnn(CCF)n2)sc1-c1ccc(S(C)(=O)=O)c(F)c1 [compound 8, 1-{2-[2-(2-Fluoro-ethyl)-2H-tetrazol-5-yl]-ethyl}-3-[5-(3-fluoro-4-methanesulfonyl-phenyl)-4-methyl-thiazol-2-yl]-urea]

Compound	IC50 [µM]	increase in activity over the corresponding compound described in WO0521519 (fold, from IC50 (?) values of the table)
N-(2-Fluoro-1,1-dimethyl-ethyl-3-{3-[5-(3-fluoro-4-methanesulfonyl-phenyl)-4-methyl-thiazol-2-yl]-ureido}-propionamide [compound 1]	0.046	–
